Data reported in patent US10154990B2, “Medicaments for the treatment or prevention of fibrotic diseases” (Boehringer Ingelheim International GmbH, priority 2004, dated 2018).

First: COC(=O)c1ccc2c(c1)NC(=O)/C2=C(\Nc1ccc(N(C)C(=O)CN(C)C)c(C#N)c1)c1ccccc1 [(v), 3-Z-[1-(3-cyano-4-(N-dimethylaminomethylcarbonyl-N-methyl-amino)-anilino)-1-phenyl-methylene]-6-methoxycarbonyl-2-indolinone]
Second: COC(=O)c1ccc2c(c1)NC(=O)/C2=C(\Nc1ccc(N(C)C(=O)CN(C)C)c(OC)c1)c1ccccc1 [(w), 3-Z-[1-(3-methoxy-4-(N-dimethylaminomethylcarbonyl-N-methyl-amino)-anilino)-1-phenyl-methylene]-6-methoxycarbonyl-2-indolinone]
The melting point of the first is higher: 163 to 165 °C for the first, 160 to 163 °C for the second.

First: COC(=O)c1ccc2c(c1)NC(=O)/C2=C(\Nc1ccc(N(C)C(=O)CN)cc1)c1ccccc1 [(x), 3-Z-[1-(4-(N-aminomethylcarbonyl-N-methyl-amino)-anilino)-1-phenyl-methylene]-6-methoxycarbonyl-2-indolinone]
Second: COC(=O)c1ccc2c(c1)NC(=O)/C2=C(\Nc1ccc(N(C)C(=O)C(N)(CCO)CCO)cc1)c1ccccc1 [(z), 3-Z-[1-(4-(N-(di-(2-hydroxy-ethyl)-amino-methylcarbonyl)-N-methyl-amino)-anilino)-1-phenyl-methylene]-6-methoxycarbonyl-2-indolinone]
The melting point of the first is higher: 221 °C for the first, 199 to 202 °C for the second.
